Laboratory results as given in patent publication US8445501B2, “Substituted 7-carboxamido-pyrrolo[3,2-d]pyrimidines” (Takeda GmbH, priority 2008, dated 2013).

Target: T1, human PDE5 (Homo sapiens, UniProt O76074)
T1 construct: from tissue; host or cells: platelets from fresh blood of human donors (lysate, 10,000 g supernatant)
Test: Inhibition of the type 5 phosphodiesterase (PDE5) activity, modified SPA test with platelet lysate
Assay type: biochemical
Conditions: PDE5 from human platelet lysate, 0.5 μM cGMP
How it was run: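 Human platelet lysate (10,000 g supernatant) as PDE5 source in SPA with 0.5 μM cGMP plus [3H]cGMP tracer, pH 7.4, 5 mM Mg2+, 1 μM motapizone and 10 nM PDE2 inhibitor; 10–20% conversion. 5 min preincubation, 15 min at 37 °C, stopped with SPA beads/IBMX. IC50 by non-linear regression.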

| SMILES | IC50 [nM] |
| --- | --- |
| COc1ccc(OCC2CC2)c(-c2ncnc3c(C(=O)N[C@H]4CC[C@@H](NC(=O)CO)CC4)c[nH]c23)c1 [Example 208, cis-4-(2-Cyclopropylmethoxy-5-methoxy-phenyl)-5H-pyrrolo[3,2-d]pyrimidine-7-carboxylic acid [4-(2-hydroxy-acetylamino)-cyclohexyl]-amide] | 1.86 |
| COc1ccc(OCC2CC2)c(-c2ncnc3c(C(=O)NC4CCN(C(=O)CO)CC4)c[nH]c23)c1 [Example 211, 4-(2-Cyclopropylmethoxy-5-methoxy-phenyl)-5H-pyrrolo[3,2-d]pyrimidine-7-carboxylic acid [1-(2-hydroxy-acetyl)piperidin-4-yl]-amide] | 2.34 |
| O=C(CO)N[C@H]1CC[C@@H](NC(=O)c2c[nH]c3c(-c4ccc(F)cc4OCC4CC4)ncnc23)CC1 [Example 214, cis-4-(2-Cyclopropylmethoxy-4-fluoro-phenyl)-5H-pyrrolo[3,2-d]pyrimidine-7-carboxylic acid [4-(2-hydroxy-acetylamino)-cyclohexyl]-amide] | 2.63 |
| C[C@H](O)C(=O)N[C@H]1CC[C@@H](NC(=O)c2c[nH]c3c(-c4ccc(F)cc4OCC4CC4)ncnc23)CC1 [Example 215, cis-4-(2-Cyclopropylmethoxy-4-fluoro-phenyl)-5H-pyrrolo[3,2-d]pyrimidine-7-carboxylic acid [4-((S)-2-hydroxy-propionylamino)-cyclohexyl]-amide] | 2.57 |
| O=C(N[C@H]1CC[C@@H](NC(=O)C2(O)CC2)CC1)c1c[nH]c2c(-c3ccc(F)cc3OCC3CC3)ncnc12 [Example 216, cis-4-(2-Cyclopropylmethoxy-4-fluoro-phenyl)-5H-pyrrolo[3,2-d]pyrimidine-7-carboxylic acid {4-[(1-hydroxy-cyclopropanecarbonyl)-amino]-cyclohexyl}-amide] | 1.51 |
| O=C(CO)N[C@H]1CC[C@H](NC(=O)c2c[nH]c3c(-c4ccc(F)cc4OCC4CC4)ncnc23)CC1 [Example 217, trans-4-(2-Cyclopropylmethoxy-4-fluoro-phenyl)-5H-pyrrolo[3,2-d]pyrimidine-7-carboxylic acid [4-(2-hydroxy-acetylamino)-cyclohexyl]-amide] | 2.24 |
| C[C@H](O)C(=O)N[C@H]1CC[C@H](NC(=O)c2c[nH]c3c(-c4ccc(F)cc4OCC4CC4)ncnc23)CC1 [Example 218, trans-4-(2-Cyclopropylmethoxy-4-fluoro-phenyl)-5H-pyrrolo[3,2-d]pyrimidine-7-carboxylic acid [4-((S)-2-hydroxy-propionylamino)-cyclohexyl]-amide] | 2.51 |
| O=C(N[C@H]1CC[C@H](NC(=O)C2(O)CC2)CC1)c1c[nH]c2c(-c3ccc(F)cc3OCC3CC3)ncnc12 [Example 219, trans-4-(2-Cyclopropylmethoxy-4-fluoro-phenyl)-5H-pyrrolo[3,2-d]pyrimidine-7-carboxylic acid {4-[(1-hydroxy-cyclopropanecarbonyl)-amino]-cyclohexyl}-amide] | 2 |
| O=C(NC1CCN(C(=O)CO)CC1)c1c[nH]c2c(-c3cc(F)ccc3OCC3CC3)ncnc12 [Example 220, 4-(2-Cyclopropylmethoxy-5-fluoro-phenyl)-5H-pyrrolo[3,2-d]pyrimidine-7-carboxylic acid [1-(2-hydroxy-acetyl)piperidin-4-yl]-amide] | 7.41 |
| C[C@H](O)C(=O)N1CCC(NC(=O)c2c[nH]c3c(-c4cc(F)ccc4OCC4CC4)ncnc23)CC1 [Example 221, 4-(2-Cyclopropylmethoxy-5-fluoro-phenyl)-5H-pyrrolo[3,2-d]pyrimidine-7-carboxylic acid [1-((S)-2-hydroxy-propionyl)piperidin-4-yl]-amide] | 6.46 |
| O=C(CO)N[C@H]1CC[C@H](NC(=O)c2c[nH]c3c(-c4cc(F)ccc4OCC4CC4)ncnc23)CC1 [Example 222, trans-4-(2-Cyclopropylmethoxy-5-fluoro-phenyl)-5H-pyrrolo[3,2-d]pyrimidine-7-carboxylic acid [4-(2-hydroxy-acetylamino)-cyclohexyl]-amide] | 1.91 |
| O=C(CO)N[C@H]1CC[C@H](NC(=O)c2c[nH]c3c(-c4ccccc4OCC4CC4)ncnc23)CC1 [Example 224, trans-4-(2-Cyclopropylmethoxy-phenyl)-5H-pyrrolo[3,2-d]pyrimidine-7-carboxylic acid [4-(2-hydroxy-acetylamino)-cyclohexyl]-amide] | 6.92 |

Compounds with a lower IC50, results first:

| IC50 [nM] | SMILES |
| --- | --- |
| 0.617 | C[C@H](O)C(=O)N1CCC[C@@H](NC(=O)c2c[nH]c3c(-c4c(OCC5CC5)ccc5c4OCO5)ncnc23)C1 [Example 198, 4-(5-Cyclopropylmethoxy-benzo[1,3]dioxol-4-yl)-5H-pyrrolo[3,2-d]pyrimidine-7-carboxylic acid [(R)-1-((S)-2-hydroxy-propanoyl)piperidin-3-yl]-amide] |
| 0.589 | COc1ccc(-c2ncnc3c(C(=O)N[C@H]4CC[C@H](NC(=O)CO)CC4)c[nH]c23)c(OCC2CC2)c1 [Example 199, trans-4-(2-Cyclopropylmethoxy-4-methoxy-phenyl)-5H-pyrrolo[3,2-d]pyrimidine-7-carboxylic acid [4-(2-hydroxy-acetylamino)-cyclohexyl]-amide] |
| 0.479 | COc1ccc(-c2ncnc3c(C(=O)N[C@H]4CC[C@H](NC(=O)[C@H](C)O)CC4)c[nH]c23)c(OCC2CC2)c1 [Example 200, trans-4-(2-Cyclopropylmethoxy-4-methoxy-phenyl)-5H-pyrrolo[3,2-d]pyrimidine-7-carboxylic acid [4-((S)-2-hydroxy-propionylamino)-cyclohexyl]-amide] |
| 0.407 | COc1ccc(-c2ncnc3c(C(=O)N[C@H]4CC[C@H](NC(=O)C5(O)CC5)CC4)c[nH]c23)c(OCC2CC2)c1 [Example 201, trans-4-(2-Cyclopropylmethoxy-4-methoxy-phenyl)-5H-pyrrolo[3,2-d]pyrimidine-7-carboxylic acid {4-[(1-hydroxy-cyclopropanecarbonyl)-amino]-cyclohexyl}-amide] |
| 0.741 | COc1ccc(-c2ncnc3c(C(=O)N[C@H]4CC[C@@H](NC(=O)CO)CC4)c[nH]c23)c(OCC2CC2)c1 [Example 202, cis-4-(2-Cyclopropylmethoxy-4-methoxy-phenyl)-5H-pyrrolo[3,2-d]pyrimidine-7-carboxylic acid [4-(2-hydroxy-acetylamino)-cyclohexyl]-amide] |
| 0.389 | COc1ccc(-c2ncnc3c(C(=O)N[C@H]4CC[C@@H](NC(=O)[C@H](C)O)CC4)c[nH]c23)c(OCC2CC2)c1 [Example 203, cis-4-(2-Cyclopropylmethoxy-4-methoxy-phenyl)-5H-pyrrolo[3,2-d]pyrimidine-7-carboxylic acid [4-((S)-2-hydroxy-propionylamino)-cyclohexyl]-amide] |
| 0.257 | COc1ccc(-c2ncnc3c(C(=O)N[C@H]4CC[C@@H](NC(=O)C5(O)CC5)CC4)c[nH]c23)c(OCC2CC2)c1 [Example 204, cis-4-(2-Cyclopropylmethoxy-4-methoxy-phenyl)-5H-pyrrolo[3,2-d]pyrimidine-7-carboxylic acid {-[(1-hydroxy-cyclopropanecarbonyl)-amino]-cyclohexyl}-amide] |
| 0.832 | COc1ccc(-c2ncnc3c(C(=O)NC4CCN(C(=O)CO)CC4)c[nH]c23)c(OCC2CC2)c1 [Example 205, 4-(2-Cyclopropylmethoxy-4-methoxy-phenyl)-5H-pyrrolo[3,2-d]pyrimidine-7-carboxylic acid [1-(2-hydroxy-ethanoyl)-piperidin-4-yl]amide] |
| 0.661 | COc1ccc(-c2ncnc3c(C(=O)NC4CCN(C(=O)[C@H](C)O)CC4)c[nH]c23)c(OCC2CC2)c1 [Example 206, 4-(2-Cyclopropylmethoxy-4-methoxy-phenyl)-5H-pyrrolo[3,2-d]pyrimidine-7-carboxylic acid [1-((S)-2-hydroxy-propanoyl)piperidin-4-yl]-amide] |
| 0.245 | COc1ccc(-c2ncnc3c(C(=O)NC4CCN(C(=O)C5(O)CC5)CC4)c[nH]c23)c(OCC2CC2)c1 [Example 207, 4-(2-Cyclopropylmethoxy-4-methoxy-phenyl)-5H-pyrrolo[3,2-d]pyrimidine-7-carboxylic acid {1-[1-(1-hydroxy-cyclopropyl)-methanoyl]-piperidin-4-yl}-amide] |
| 0.692 | COc1ccc(OCC2CC2)c(-c2ncnc3c(C(=O)N[C@H]4CC[C@@H](NC(=O)C5(O)CC5)CC4)c[nH]c23)c1 [Example 209, cis-4-(2-Cyclopropylmethoxy-5-methoxy-phenyl)-5H-pyrrolo[3,2-d]pyrimidine-7-carboxylic acid {4-[(1-hydroxy-cyclopropanecarbonyl)-amino]-cyclohexyl}-amide] |
| 0.646 | COc1ccc(OCC2CC2)c(-c2ncnc3c(C(=O)N[C@H]4CC[C@H](NC(=O)C5(O)CC5)CC4)c[nH]c23)c1 [Example 210, trans-4-(2-Cyclopropylmethoxy-5-methoxy-phenyl)-5H-pyrrolo[3,2-d]pyrimidine-7-carboxylic acid {4-[(1-hydroxy-cyclopropanecarbonyl)-amino]-cyclohexyl}-amide] |
| 1.07 | COc1ccc(OCC2CC2)c(-c2ncnc3c(C(=O)NC4CCN(C(=O)[C@H](C)O)CC4)c[nH]c23)c1 [Example 212, 4-(2-Cyclopropylmethoxy-5-methoxy-phenyl)-5H-pyrrolo[3,2-d]pyrimidine-7-carboxylic acid [1-((S)-2-hydroxy-propionyl)piperidin-4-yl]-amide] |
| 0.55 | COc1ccc(OCC2CC2)c(-c2ncnc3c(C(=O)NC4CCN(C(=O)C5(O)CC5)CC4)c[nH]c23)c1 [Example 213, 4-(2-Cyclopropylmethoxy-5-methoxy-phenyl)-5H-pyrrolo[3,2-d]pyrimidine-7-carboxylic acid [1-(1-hydroxy-cyclopropanecarbonyl)-piperidin-4-yl]-amide] |
